Measured values from US20100298141A1, “SUBSTITUTED PYRIDINE N-OXIDE HERBICIDES” (E. I. DU PONT DE NEMOURS AND COMPANY, priority 2007, published 2010).

Tests used:
redroot pigweed = assay: Test A pre-/postemergence greenhouse test; assay type: in vivo, Amaranthus retroflexus; conditions: for Plant response rating, Pigweed: 0 to 100 scale where 0 is no effect and 100 is complete control; for Pigweed plant response rating: 0 to 100 scale
Outline: (§1)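 Each test compound, dissolved in a non-phytotoxic solvent mixture with surfactant, was sprayed directly onto seeded soil (loam/sand blend) and, at the same moment, onto seedlings carrying one to two leaves. Around ten greenhouse days later, plants were rated visually for injury relative to untreated controls.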

lambsquarters = assay: Test C pre-/postemergence test; assay type: in vivo, Chenopodium album
Outline: (§2)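 Compounds in a non-phytotoxic solvent with surfactant applied preemergence to seeded pots and, at the same time, postemergence to plants 2–18 cm tall (1- to 4-leaf stage). Paddy tests: pots flooded to 3 cm, compound applied into the water, depth held throughout.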

catchweed bedstraw = assay: Test C pre-/postemergence test; assay type: in vivo, Galium aparine
Outline: as §2

woolly cupgrass = assay: Test C pre-/postemergence test; assay type: in vivo, Eriochloa villosa
Outline: as §2

downy brome = assay: Test C pre-/postemergence test; assay type: in vivo, Bromus tectorum
Outline: as §2

morningglory = assay: Test A pre-/postemergence greenhouse test; assay type: in vivo, Ipomoea spp.; conditions: for Plant response rating, Morningglory: 0 to 100 scale where 0 is no effect and 100 is complete control; for Morningglory plant response rating: 0 to 100 scale
Outline: as §1

rice = assay: Test C flooded paddy test; assay type: in vivo, Oryza sativa; conditions: Flood
Outline: (§3)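 Pots were flooded to 3 cm above the soil surface at treatment, compound applied directly to the paddy water, and that depth held throughout. Plants were kept in a greenhouse for 13 to 15 days, then visually rated against untreated controls.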

soybean = assay: Test C pre-/postemergence test; assay type: in vivo, Glycine max
Outline: as §2

yellow nutsedge = assay: Test C pre-/postemergence test; assay type: in vivo, Cyperus esculentus
Outline: as §2

bermudagrass = assay: Test C pre-/postemergence test; assay type: in vivo, Cynodon dactylon
Outline: as §2

blackgrass = assay: Test C pre-/postemergence test; assay type: in vivo, Alopecurus myosuroides
Outline: as §2

cocklebur = assay: Test C pre-/postemergence test; assay type: in vivo, Xanthium strumarium
Outline: as §2

kochia = assay: Test C pre-/postemergence test; assay type: in vivo, Kochia scoparia
Outline: as §2

duck salad = assay: Test C flooded paddy test; assay type: in vivo, Heteranthera limosa; conditions: Flood
Outline: as §3

wild oat = assay: Test C pre-/postemergence test; assay type: in vivo, Avena fatua
Outline: as §2

green foxtail = assay: Test C pre-/postemergence test; assay type: in vivo, Setaria viridis
Outline: as §2

[1] = Postemergence, 500 g ai/ha, 0 is no effect, 100 is complete control
[2] = Preemergence, 125 g ai/ha, 0 no effect, 100 complete control
[3] = 62 g ai/ha, Preemergence, scale 0 to 100
[4] = 125 g ai/ha, preemergence, scale 0 (no effect) to 100 (complete control)
[5] = Preemergence, 31 g ai/ha, scale 0 to 100 (0 no effect, 100 complete control)
[6] = preemergence, 250 g ai/ha, scale 0 (no effect) to 100 (complete control)
[7] = 62 g ai/ha, scale 0 to 100 (0 no effect, 100 complete control)
[8] = 250 g ai/ha, scale 0 to 100, 0 no effect, 100 complete control, 13 to 15 days

Cn1nc(C(F)(F)F)c(C[S+]([O-])c2cccc[n+]2[O-])c1OCC(F)F (centres unmarked) [Compound 75]
50: Bromegrass, Downy plant response rating (downy brome; [3]) | Nutsedge, Yellow plant response rating (yellow nutsedge; [3])
0: Plant response rating, Rice (rice; [7]) | Plant response rating, Soybean (soybean; [5]) | Plant response rating, Nutsedge, Yellow (yellow nutsedge; [5]) | Cocklebur plant response rating (cocklebur; [3]) | Cocklebur plant response rating (cocklebur; [4]) | Plant response rating, Cocklebur (cocklebur; [5]) | Plant response rating, Oat, Wild (wild oat; [5])
60: Plant response rating, Rice (rice; [8]) | Plant response rating, Blackgrass (blackgrass; [5])
70: Plant response rating, Pigweed (redroot pigweed; Postemergence, 125 g ai/ha) | Nutsedge, Yellow plant response rating (yellow nutsedge; [4]) | Oat, Wild plant response rating (wild oat; [4])
98: Soybean plant response rating (soybean; [3]) | Foxtail, Green plant response rating (green foxtail; [3]) | Foxtail, Green plant response rating (green foxtail; [4])
90: Bromegrass, Downy plant response rating (downy brome; [6]) | Morningglory plant response rating (morningglory; [1]) | Plant response rating, Morningglory (morningglory; Preemergence, 500 g ai/ha)
40: Plant response rating, Bromegrass, Downy (downy brome; [5]) | Plant response rating, Morningglory (morningglory; Postemergence, 125 g ai/ha) | Morningglory plant response rating (morningglory; [2]) | Plant response rating, Ducksalad (duck salad; [7]) | Oat, Wild plant response rating (wild oat; [3])
85: Cupgrass, Woolly plant response rating (woolly cupgrass; [3]) | Plant response rating, Cupgrass, Woolly (woolly cupgrass; [5]) | Bromegrass, Downy plant response rating (downy brome; [4]) | Plant response rating, Ducksalad (duck salad; [8])
10: Cocklebur plant response rating (cocklebur; [6])
80: Pigweed plant response rating (redroot pigweed; [2]) | Plant response rating, Galium (catchweed bedstraw; [5]) | Oat, Wild plant response rating (wild oat; [6]) | Plant response rating, Foxtail, Green (green foxtail; [5])
100: Pigweed plant response rating (redroot pigweed; [1]) | Plant response rating, Pigweed (redroot pigweed; Preemergence, 500 g ai/ha) | Lambsquarters plant response rating (lambsquarters; [3]) | Lambsquarters plant response rating (lambsquarters; [4]) | Plant response rating, Lambsquarters (lambsquarters; [5]) | Lambsquarters plant response rating (lambsquarters; [6]) | Galium plant response rating (catchweed bedstraw; [3]) | Galium plant response rating (catchweed bedstraw; [4]) | Galium plant response rating (catchweed bedstraw; [6]) | Cupgrass, Woolly plant response rating (woolly cupgrass; [4]) | Cupgrass, Woolly plant response rating (woolly cupgrass; [6]) | Soybean plant response rating (soybean; [4]) | Nutsedge, Yellow plant response rating (yellow nutsedge; [6]) | Bermudagrass plant response rating (bermudagrass; 62 g ai/ha, Preemergence, scale 0 to 100 (0 no effect, 100 complete control)) | Bermudagrass plant response rating (bermudagrass; [4]) | Plant response rating, Bermudagrass (bermudagrass; [5]) | Bermudagrass plant response rating (bermudagrass; [6]) | Blackgrass plant response rating (blackgrass; [3]) | Blackgrass plant response rating (blackgrass; [4]) | Blackgrass plant response rating (blackgrass; [6]) | Kochia plant response rating (kochia; [3]) | Kochia plant response rating (kochia; [4]) | Plant response rating, Kochia (kochia; [5]) | Kochia plant response rating (kochia; [6]) | Foxtail, Green plant response rating (green foxtail; [6])
